In patent US12357608B2, “Methods and compositions utilizing RRx-001 combination therapy for radioprotection” (priority 2018, dated 2025):
Entries after “also recorded” stand apart in the source; their conditions may differ.

Key:
Nrf2 = settings: tumor cells exposed to RRx-001; Ning et al., Oncotarget 2015; cited from earlier work
[1] = tested on: male Syrian Golden Hamsters; experiment: Oral mucositis induced by acute radiation in hamsters; type: in vivo
Description: Fifty-six (56) male Syrian Golden Hamsters were used in the study. Mucositis was induced by administering an acute radiation dose of 40 Gy directed to the left buccal cheek pouch on Day 0 at a rate of 2-2.5 Gy/min. Mucositis was evaluated clinically starting on Day 6 and continuing on alternate days until Day 28. Hamsters reaching a mucositis severity score of 4 or higher received buprenorphine (0.5 mg/kg) SC twice a day for 48 hours or until score dropped below 4.
Dosing was scheduled as follows: for animals in Groups 1-4, animals were dosed with RRx-001 (1, 3, or 10 mg/kg) or vehicle (1:2 DMA:PEG400 vol:vol ratio) once a day (QD) on Days −4, −1, 1, 4, 7, 11, 14, 18, 21, and 25 via intraperitoneal (IP) administration; animals in Groups 5-7 were dosed QD with RRx-001 (1, 3, or 10 mg/kg) on Days −4, −1, 1, 8, 15, and 22.
The significance of differences observed between the control and treatment group was evaluated by comparing the days with mucositis scores≥3 and <3 between groups using chi-square analysis. […] The percentage of animal days with a score of ≥3 in the Vehicle Group was 57.29%. […] There were numerous days where animals dosed with RRx-001 had percent ulceration days that were lower (which can be interpreted as ameliorative of disease severity) in comparison to vehicle-dosed animals.
An analysis of the severity of mucositis was performed using the Mann-Whitney rank sum analysis to compare the visual mucositis scores for the treatment group to the Vehicle control group on each day of evaluation. In this analysis, 2 days of significant reduction in the mucositis score are generally required before it is regarded as meaningful.
This evaluation was intended to clarify which days of treatment had its maximal impact on the course of ulcerative mucositis. There were numerous days where animals dosed with RRx-001 had percent ulceration days that were lower (which can be interpreted as ameliorative of disease severity) in comparison to vehicle-dosed animals.

CD2F1 male mice = experiment: Survival following lethal total body irradiation (TBI); type: in vivo
Description: In this Example, the effects of systemic administration of RRx-001 on survival in response to a lethal dose of radiation was assayed in mice. CD2F1 male mice 9.5-11 weeks old were administered a single dose of RRx-001 by intraperitoneal (IP) injection 24 hours prior to a lethal radiation dose. 24 mice received 10 mg/kg RRx-001 (formulated in 5% DMSO in sterile H2O) and 24 mice received the vehicle control (5% DMSO) in sterile H2O only).
The mice were subjected to total body irradiation (TBI) with 9.35 Gy (LD70/30) at 0.6 Gy/min using High-level Cobalt-60. Unanesthetized mice were placed in well-ventilated Plexiglas restrainers and irradiated bilaterally. Sham-irradiated mice were also placed in identical Plexiglas restrainers and kept in a room shielded from irradiation at the same time. In each experiment, the dose to the abdominal cores of the animals was delivered at a dose rate of approximately 0.6 Gy/min. Dosimetry was performed prior to the irradiation of the animals using the highly accurate alanine/electron spin resonance (ESR) dosimetry system (American Society for Testing and Materials, Standard E 1607) to measure dose rates (to water) in the cores of acrylic mouse phantoms, which were located in the compartments of the exposure rack. A calibration curve based on standard alanine calibration dosimeters provided by the National Institute of Standards and Technology (NIST, Gaithersburg, MD) was used to measure the doses. The accuracy of the dose rate calibrations has been verified several times using the services of the National Physics Laboratory (UK National Standards Laboratory, London, UK) and the M.D. Anderson Cancer Center (Houston, TX). The corrections applied to the measured dose rates in the phantoms were for a small difference in the Co-60 energy between the mass energy-absorption coefficients for soft tissue and water, as well as source decay. The radiation field was uniform within ±1.2%.
Mice were monitored at least twice a day for 30 days post-irradiation. During the critical period (days 10-20), mice were monitored at least three times a day with no more than 10 hours between observations. Mice displaying any signs of discomfort received food in their cage as a wet mash. Mice displaying overt dyspnea, weight loss, lethargy, or other markers of moribundity and appearing to be in distress were humanely euthanized in a separate room using carbon dioxide gas followed by cervical dislocation after breathing stopped as a confirmatory method of euthanasia. This experiment was repeated for a total of n=24 mice per group.
Survival curves were estimated using the Kaplan-Meier method and were compared using a two-sided log-rank test at the 0.05 significance level. P-values were considered statistically significant if less than 0.05.

THP-1 cells = experiment: Cytokine array of irradiated THP-1 monocytes and macrophages; type: cell-based, human
Description: A cytokine array was employed to examine cytokine expression following in vitro irradiation of human monocytic leukemic THP-1 cells. THP-1 cells were differentiated into macrophages with 50 nM Phorbol 12-myristate 13-acetate (PMA) for 24 hours before treatment. Differentiated and non-differentiated cells were treated with […] RRx-001 or 0.05% DMSO (vehicle control) for 16 hours prior to radiation. The cells were irradiated at 5 Gy or sham-irradiated and collected 4-8 hours later for both analysis. For the cytokine analysis, cell media was collected and blotted onto Proteome Profiler Human Cytokine Arrays (R&D Systems, Inc.) according to the manufacturer's protocol.

## O=C(CBr)N1CC([N+](=O)[O-])([N+](=O)[O-])C1 [RRx-001, 2-bromo-1-(3,3-dinitroazetidin-1-yl)ethan-1-one]
Nrf2
  nuclear presence of transcription factor Nrf2: increased nuclear presence
[1]; 1 mg/kg IP
  daily mucositis scores compared to the Vehicle control group: multiple days of significant improvement in mucositis scores
[1]; 10 mg/kg IP
  daily mucositis scores compared to the Vehicle control group: multiple days of significant improvement in mucositis scores
[1]; 10 mg/kg IP, Group 2, dosed Days −4, −1, 1, 40 Gy
  mean daily mucositis scores: modest but significant enhancement of disease healing
[1]; 10 mg/kg IP, Groups 2 and 5, after cessation of dosing
  body weight by study termination: rebounded back to be in line with other groups
[1]; 10 mg/kg IP, Groups 2 and 5, dosing discontinued after Day 1
  tolerability of the highest dose: adverse side effects
[1]; 10 mg/kg IP, Groups 2 and 5, during study
  body weight: lower weights than all other groups
[1]; 10 mg/kg, Groups 2 and 5, only dosed on Days −4, −1, and 1
  percent ulceration: best response in decreasing percent ulceration
[1]; 3 and 1 mg/kg, 1 mg/kg, Group 4 vs Group 7
  percent days of ulceration, twice weekly dosing vs one time per week: more beneficial effects on percent days of ulceration
[1]; Group 2, 10 mg/kg on Days −4, −1, 1, p<0.01
  percentage of days with a mucositis score of ≥3 in comparison to the Vehicle Group: statistically lower
[1]; all groups except Groups 2 and 5 (1 and 3 mg/kg IP)
  body weight: steadily gained weight
[1]; all other treatment groups (Groups 3-7)
  mean daily mucositis scores: tracked fairly close to each other, and with Vehicle dosed controls
[1]; numerous days
  percent ulceration days in comparison to vehicle-dosed animals: lower
CD2F1 male mice; 10 mg/kg 24 hours prior to lethal TBI
  increase in mean survival time compared to the vehicle control: 7 days
CD2F1 male mice; 10 mg/kg 24 hours prior to lethal TBI, vs vehicle control
  increase in survival: 33.4%
CD2F1 male mice; 10 mg/kg IP 24 hours prior to 9.35 Gy TBI, 30-day observation, N=24/group
  survival times, means±standard errors: 27.2 ± 1.1 days
CD2F1 male mice; one dose 10 mg/kg IP 24 hours prior to 9.35 Gy (LD70/30) TBI, vs vehicle control irradiated mice
  reduction in the 30-day death risk: ~33.4%
THP-1 cells; THP-1 macrophage fraction, sham and 5 Gy irradiated, 3 mM RRx-001 16 hours
  cytokines involved in inflammation: reduction in cytokines involved in inflammation
THP-1 cells; THP-1 macrophages
  pro-inflammatory chemokine IL-8: reduction
THP-1 cells; THP-1 monocytes, 3 mM RRx-001 16 hours
  CCL5/RANTES expression: induction; also recorded: upregulation
